Results from patent publication US20230121474A1, “STERILIZATION COMPOSITIONS AND METHODS FOR USING THEREOF” (Save Foods Ltd., priority 2020, published 2023).

What was measured:
[1] = tested on: Listeria; assay: In-vitro antimicrobial activity, edible matter contaminated with bacteria dipped into test solution (CFU reduction); type: cell-based; conditions: contact time 60 minutes
Protocol: The antimicrobial activity of the composition was tested in-vitro. […] The contact time was 60 minutes. The antimicrobial activity was assessed by calculating bacterial viability (e.g. reduction of the CFU).

[2] = tested on: common fungal pathogen; assay: Decay of clementine infested with fungal pathogen after treatment; type: in vivo; conditions: fruits infested at around 10^5 CFU, cold storage 9 to 21 days then room temperature
Protocol: Additionally, exemplary sanitizing composition (Composition B) was applied on clementine, and the fruit decay was evaluated as compared to only PAA treatment or untreated fruits. The fruits were infested with a common fungal pathogen at a concentration of around 10^5 CFU and inoculated for 16-24 hours before treatment. Following the treatments, the fruits were stored in cold storage for between 9 to 21 days and then stored in room temperature for shelf-life evaluation.

[3] = tested on: pre-infected lemons (inoculum of homogenized infected lemons); assay: Decay of pre-infected, pricked lemons after sanitizing treatment; type: in vivo
From the text: Inoculum preparation: Infected lemons were identified visually and collected under three different lemon trees on Moshav Beit Yitzhak. Ten of the more infected lemons were put into a food processor, diluted with rainwater and homogenized to uniform, grayish brown, slightly viscous liquid consistency.
They were sent to de-greening from which they were removed on 2nd day. All lemons were pricked in 6 different location on each lemon using a metal nail attached to a rubber stopper which ensured a uniform pricking depth of 1.5 mm on all the lemons. On the same day the liquidized inoculum was prepared as described above and all the lemons were dipped into the “infected” water solution for 30 seconds and allowed to dry at ambient room conditions—temperatures between […].
On the next day the lemons were treated as per description below to screen the various treatment's efficacy in controlling and preventing decay and spoilage of the pre-infected lemons. All treated lemons were divided and placed in separate cartons and allowed to dry. Disease progress of the lemons was monitored for 7 days with no visible disease symptoms. On day 8 after treatment all cartons were covered with plastic sheeting in order to increase ambient humidity to speed up disease development.

[4] = acid blend 1:1:1 molar ratio with oxidizing agent, potent = at least 10^5-fold reduction of CFUs
[5] = Treatment 3: PAA 50 ppm/PAA 50 ppm, contact time 60 sec
[6] = Treatment 4: PAA 50 ppm/PAA 50 ppm, contact time 45 sec
[7] = Treatment 5: PAA 30 ppm, contact time 45 sec

OO [hydrogen peroxide]
minimum concentration of hydrogen peroxide within the solution [1, 4]: 200 ppm
antimicrobial activity of the oxidizing agent alone ([1]; without acid blend): Neither hydrogen peroxide, nor silver/hydrogen peroxide combination showed a significant antimicrobial activity

CCC(=O)O [propionic acid]
concentration of propionic acid within the solution sufficient for antibacterial activity [1, 4]: 100 ppm

CC(=O)OO [PAA, per-acetic acid]
decay of clementine [2]: about 20%
% Infected Lemons 15 DAT [3, 5]: 16.7%
% Infected lemons 10 DAT [3, 5]: 0%
Infected Lemons 10 DAT [3, 5]: 0
Infected Lemons 15 DAT [3, 5]: 2
% Infected Lemons 15 DAT [3, 6]: 25%
% Infected lemons 10 DAT [3, 6]: 20%
Infected Lemons 10 DAT [3, 6]: 3
Infected Lemons 15 DAT [3, 6]: 3
% Infected Lemons 15 DAT [3, 7]: 40%
% Infected lemons 10 DAT [3, 7]: 40%
Infected Lemons 10 DAT [3, 7]: 4
Infected Lemons 15 DAT [3, 7]: 4
